Positions of bridges follow the written chain, without caps; N, C: chain ends. Non-standard residues stand in square brackets, D forms with d. Residues, ends and D or L forms follow the SMILES beside them.
What was measured:
growth hormone = experiment: Arginine-stimulated growth hormone secretion in Nembutal-anesthetized rats, radioimmunoassay of blood; format: in vivo; settings: for GH: albino male rats, subcutaneous
Text: (§1) The results of the assay are as follows:

insulin = experiment: Arginine-stimulated insulin secretion in Nembutal-anesthetized rats, radioimmunoassay of blood; format: in vivo; settings: for Insulin: albino male rats, subcutaneous
Text: as §1

glucagon = experiment: Arginine-stimulated glucagon secretion in Nembutal-anesthetized rats, radioimmunoassay of blood; settings: for Glucagon: albino male rats, subcutaneous
Description: Albino male rats were administered Nembutal intraperitoneally at a dose of 50 milligrams per kilogram. Fifteen minutes later a subcutaneous injection of the test compound or physiological saline was administered. Ten minutes later 0.5 milliliters of arginine (300 milligrams per milliliter, pH 7.2) is injected into the heart. Five minutes after receipt of the arginine the rats are decapitated and blood is collected into trasylol-EDTA. An appropriate aliquot was assayed for growth hormone, insulin and glucagon by radioimmunoassay.

Work on `C[C@H](N)C(=O)NCC(=O)N[C@H]1CSSC[C@@H](C(=O)O)NC(=O)[C@H](CO)NC(=O)[C@H]([C@@H](C)O)NC(=O)[C@H](Cc2ccccc2)NC(=O)[C@H]([C@@H](C)O)NC(=O)[C@H](CCCCN)NC(=O)[C@@H](Cc2c[nH]c3ccccc23)NC(=O)[C@H](Cc2ccccc2)NC(=O)[C@H](Cc2ccccc2)NC(=O)[C@@H](C)NC(=O)[C@H](CCCCN)NC1=O` [L-Alanylglycyl-L-cysteinyl-L-lysyl-D-alanyl-L-phenylalanyl-L-phenylalanyl-D-tryptophyl-L-lysyl-L-threonyl-L-phenylalanyl-L-threonyl-L-seryl-L-cysteinecyclic (3→14)-disulfide, triacetate] (H-AGCK[dA]FF[dW]KTFTSC-OH; disulfide 3-14) yielded a GH (growth hormone; dose 10 ug/kg, control 254 ± 40) of 53 ± 6 ng/mL, a GH (growth hormone; dose 100 ug/kg, control 526 ± 153) of 117 ± 31 ng/mL and a GH (growth hormone; dose 1,000 ug/kg, control 312 ± 63) of 34 ± 5 ng/mL. The “reducing secretion of growth hormone (summary in words)” value (growth hormone; summary of rat results) was “effective agent for reducing secretion of growth hormone”, the Insulin (insulin; dose 10 ug/kg, control 321 ± 49) was 215 ± 13 μU/ml and the Insulin (insulin; dose 100 ug/kg, control 339 ± 45) was 68 ± 11 μU/ml. For the same compound, the Insulin (insulin; dose 1,000 ug/kg, control 191 ± 11) was 42 ± 5 μU/ml, the “reducing secretion of insulin (summary in words)” value (insulin; summary of rat results) was “effective agent for reducing secretion of growth hormone and insulin” and the Glucagon (glucagon; dose 10 ug/kg, control 92 ± 23, *not significant) was 78 ± 7 pg/mL. The Glucagon (glucagon; dose 1,000 ug/kg, control 42 ± 3) was 40 ± 6 pg/mL and the “effect on glucagon levels (summary in words)” value (glucagon; summary of rat results) was “without materially affecting glucagon levels”.

Source: patent US4159263A, “(D-Ala^5)-somatostatin and analogues thereof” (American Home Products Corporation, priority 1977, dated 1979)
